Literature values as cited in US6251620A, “Three dimensional structure of a ZAP tyrosine protein kinase fragment and modeling methods” (priority 1997, dated 2001).
Non-standard residues stand in square brackets, D forms with d. pY = N[C@@H](Cc1ccc(OP(=O)(O)O)cc1)C(=O)O; Nle = CCCC[C@H](N)C(=O)O

Tests used:
BDF1 mice = BDF1 mice given DBA/2 spleen:lymph node cells; usable as positive controls
MRL/Ipr-mice = conditions: SLE
ZAP-NC = conditions: in vitro binding of ZAP-NC with synthetic phosphopeptides (ref. 25)

Molecule | activity in CGVHD model (BDF1 mice) | binding hierarchy (ZAP-NC) | other results
C=CC[C@@H]1/C=C(\C)C[C@H](C)C[C@H](OC)[C@H]2O[C@@](O)(C(=O)C(=O)N3CCCC[C@H]3C(=O)O[C@H](/C(C)=C/[C@@H]3CC[C@@H](O)[C@H](OC)C3)[C@H](C)[C@@H](O)CC1=O)[C@H](C)C[C@@H]2OC [FK506] | active in this model |  | side effects (kidney and central nervous system): serious side effects in the kidney and central nervous system; kidney toxicity (patients receiving FK506, in some cases kidney transplant required after the liver transplant): severe kidney toxicity has been observed
O=P1(N(CCCl)CCCl)NCCCO1 (centres unmarked) [cyclophosphamide] | active in this model |  | effect on course of disease (MRL/Ipr-mice): can prevent and reverse the course of disease
Cc1oncc1C(=O)Nc1ccc(C(F)(F)F)cc1 [leflunomide] | active in this model |  | effect on course of disease (MRL/Ipr-mice): can prevent and reverse the course of disease
C[C@]12C=CC(=O)C=C1CC[C@@H]1[C@@H]2[C@@H](O)C[C@@]2(C)[C@H]1CC[C@]2(O)C(=O)CO [prednisolone] | active in this model |  | 
Ac.Asn.Gln.Leu.pTyr.Asn.Glu.Leu.Asn.Leu.Gly.Arg.Arg.Glu.Glu.pTyr.Asp.Val.Leu.Asp.NH2 [Ligand 5] |  | .zeta.1 =.zeta.2 >ε=.zeta.3 | 
Ac.Asp.Gly.Leu.pTyr.Gln.Gly.Leu.Ser.Thr.Ala.Thr.Lys.Asp.Thr.pTyr.Asp.Ala.Leu.His.NH2 (Ac-DGL[pY]QGLSTATKDT[pY]DALH-NH2; SMILES CC(=O)N[C@@H](CC(=O)O)C(=O)NCC(=O)N[C@@H](CC(C)C)C(=O)N[C@@H](Cc1ccc(OP(=O)(O)O)cc1)C(=O)N[C@@H](CCC(N)=O)C(=O)NCC(=O)N[C@@H](CC(C)C)C(=O)N[C@@H](CO)C(=O)N[C@H](C(=O)N[C@@H](C)C(=O)N[C@H](C(=O)N[C@@H](CCCCN)C(=O)N[C@@H](CC(=O)O)C(=O)N[C@H](C(=O)N[C@@H](Cc1ccc(OP(=O)(O)O)cc1)C(=O)N[C@@H](CC(=O)O)C(=O)N[C@@H](C)C(=O)N[C@@H](CC(C)C)C(=O)N[C@@H](Cc1c[nH]cn1)C(N)=O)[C@@H](C)O)[C@@H](C)O)[C@@H](C)O) [Ligand 7] |  | .zeta.1 =.zeta.2 >ε=.zeta.3 | 
Ac.Gly.Leu.pTyr.Asn.Glu.Leu.Gln.Lys.Asp.Lys.Nle.Ala.Glu.Ala.pTyr.Ser.Glu.Ile.Gly.NH2 (Ac-GL[pY]NELQKDK[Nle]AEA[pY]SEIG-NH2; SMILES CCCC[C@H](NC(=O)[C@H](CCCCN)NC(=O)[C@H](CC(=O)O)NC(=O)[C@H](CCCCN)NC(=O)[C@H](CCC(N)=O)NC(=O)[C@H](CC(C)C)NC(=O)[C@H](CCC(=O)O)NC(=O)[C@H](CC(N)=O)NC(=O)[C@H](Cc1ccc(OP(=O)(O)O)cc1)NC(=O)[C@H](CC(C)C)NC(=O)CNC(C)=O)C(=O)N[C@@H](C)C(=O)N[C@@H](CCC(=O)O)C(=O)N[C@@H](C)C(=O)N[C@@H](Cc1ccc(OP(=O)(O)O)cc1)C(=O)N[C@@H](CO)C(=O)N[C@@H](CCC(=O)O)C(=O)N[C@H](C(=O)NCC(N)=O)[C@@H](C)CC) [Ligand 6] |  | .zeta.1 =.zeta.2 >ε=.zeta.3 | 
